# Measured values taken from patent US20200317716A1, “PREPARATION OF BILE ACIDS AND INTERMEDIATES THEREOF” (ALLERGAN SALES, LLC, priority 2008, published 2020).
# System: not given
# Assay: not given
# Settings: not given
row,melting point,Compound
1,142.2 to 144.4 °C,COC(=O)CC[C@@H](C)[C@H]1CC[C@H]2[C@@H]3CC[C@@H]4C[C@H](OC(C)=O)CC[C@]4(C)[C@H]3CC(=O)[C@]12C
2,213 to 216 °C,C[C@]12CCC(=O)C[C@H]1CC[C@H]1[C@@H]3CCC(=O)[C@@]3(C)CC[C@@]12O
3,146 to 147.3 °C,C/C=C1/CC[C@H]2[C@@H]3CC[C@@H]4C[C@H](O)CC[C@]4(C)C3=CC[C@]12C
4,114 to 116 °C,COC(=O)/C=C/[C@@H](C)C1=CC[C@H]2[C@@H]3CC[C@@H]4C[C@H](OC(C)=O)CC[C@]4(C)C3=CC[C@]12C
5,104.2 to 107.7 °C,COC(=O)CC[C@@H](C)[C@H]1CC[C@H]2[C@@H]3CC[C@@H]4C[C@H](OC(C)=O)CC[C@]4(C)[C@H]3C[C@H](O)[C@]12C
6,93.9 to 97.8 °C,C/C=C1/CC[C@H]2[C@@H]3CC[C@@H]4C[C@H](OC(C)=O)CC[C@]4(C)C3=CC[C@]12C
7,122.1 to 123.9 °C,COC(=O)CC[C@@H](C)[C@H]1CC[C@H]2[C@@H]3CC[C@@H]4C[C@H](OC(C)=O)CC[C@]4(C)C3=CC[C@]12C

# System: Primary human adipocytes
# Assay: MTS cell viability assay on primary human adipocytes
# Assay type: cell-based
# Settings: 0.005%-0.1% bile acid in serum-free media, incubated for 1 hour at 37° C., MTS read at 490 nm, FIG. 1
# Method: Primary human adipocytes were incubated with varying concentrations of synthetic sodium deoxycholate synthesized using 9-HAD as starting material or bovine-derived sodium deoxycholate obtained from Sigma as described below.
# 96 well plates (US Scientific cat # cellstar no. 655180) Serum-free RPMI medium (Mediatech cat #17-105-CV) Sodium deoxycholate (DC) (Sigma cat # D6750) Synthetic Sodium glycodeoxycholate (Kythera)
# Adipocytes arrived differentiated and at a density of 13,000 cells per well in a 96 well plate. Two plates were received and each treated with the same samples. Cells were incubated for 24 hours at 37° C. with 5% CO2. A 1% stock solution of each bile acid (synthetic and non-synthetic DCA) were made by dissolving 20 mg into 2 mL media (serum-free). Using the 1% stock solution, the following 11 solutions were prepared by dilution: 0.005%, 0.01%, 0.015%, 0.02%, 0.025%, 0.03%, 0.035%, 0.04%, 0.05%, 0.06%, and 0.1%, as well as 0% (media only).
# Cells were washed 2× with 150 μL of room temperature 1×PBS (phosphate buffered saline). Media and then PBS were removed from the wells in a 96 well plate by turning the plate upside down and decanting the liquid into a container. After the last PBS wash, 80 μL of sample was added per well. […]
# Cell viability was assessed using a colorimetric assay (MTS) kit from Promega.
row,Compound,cell survival
1,sodium deoxycholate [syn-NaDC],dose-dependent decrease in cell survival
